{"source": "paper PMC8522729", "about": "(Antimicrobial Agents and Chemotherapy, 2021)", "origin": "cited, not measured here", "test_system": "M. tuberculosis", "conditions": "cited from earlier work"}
{"smiles": "O=C1CCc2c(OC[C@]3(O)CCN(c4c(F)cc(Cl)cc4F)C[C@H]3O)ccc(F)c2N1", "note": "[OPC-167832]", "values": [{"measurement": "frequency of resistance", "result": "< 1.9 × 10^−7"}]}
